# Measured values published in US9249158B2, “Cytomegalovirus inhibitor compounds” (Boehringer Ingelheim International GmbH, priority 2012, dated 2016).
# Target: T1, purified recombinant HCMV polymerase (UL54) (Human cytomegalovirus, UniProt P08546)
# T1 construct: made in house; host or cells: Sf21 insect cells (baculovirus)
# Test: HCMV Polymerase LANCE TR-FRET Assay
# Format: biochemical
# Details: not given
# Description: The codon optimized UL54 HCMV polymerase gene for expression in insect cells is obtained from DNA 2.0 (Menlo Park, Calif.) and subcloned in 3′ of the Glutathione-S-transferase (GST) gene in a pFastBac-derived vector. Bacmids and baculoviruses are generated and expression performed in Sf21 insect cells cultured in SF900 II SFM media. Infection using the baculoviruses is performed using an MOI of 5-10 and the cells are harvested 48 h post-infection and frozen.
# All purification procedures are performed at 4° C. The cell pellet from 1 L of culture (1×10^9 cells) is resuspended in 25 mL of 50 mM Tris pH 7.5, 1 mM TCEP, 0.1 mM EDTA, 150 mM NaCl, 10% Glycerol, 1 mM PMSF, 2 μg/mL Leupeptin, 2 μg/mL Antipain, 2 μg/mL Pepstatin A. The solution is homogenized using a Dounce tissue grinder. Following homogenization, the volume is increased to 40 mL followed by centrifugation at 750×g for 5 min to remove nuclei. The supernatant is then transferred and 3 cc of 50% slurry of glutathione-sepharose 4B resin is added. The mixture is incubated on a rotator for 1 h. The slurry is centrifuged at 500 g for 5 min. The supernatant is discarded and the pellet is resuspended in 10× volume of wash buffer (50 mM Tris pH 7.5, 1 mM TCEP, 0.1 mM EDTA, 150 mM NaCl, 10% Glycerol) and incubated for 5 min. The slurry is centrifuged at 500 g for 5 min and the supernatant is discarded. The wash step is performed 5 times. The elution is performed by adding 1.5 volume of elution buffer (50 mM Tris pH 7.5, 1 mM TCEP, 0.1 mM EDTA, 150 mM NaCl, 10% Glycerol, 20 mM glutathione) and incubating on a rotator for 15 min. The slurry is centrifuged at 500 g for 5 min and the supernatant is removed and kept. The elution step is performed four times. The supernatants are pooled and centrifuged at 500×g for 5 min to remove resin particles and frozen at −80° C.
# The frozen protein is thawed and the NaCl concentration reduced to 37.5 mM by the addition of 3 volumes of DEAE buffer A (50 mM Tris pH 7.5, 1 mM TCEP, 0.1 mM EDTA, 10% Glycerol). The protein is loaded on a HiTrap DEAE-Sepharose μF column and eluted using a gradient with DEAE buffer B (50 mM Tris pH 7.5, 1 mM TCEP, 0.1 mM EDTA, 10% Glycerol, 1 M NaCl). UL54 eluted at 140 mM NaCl. The DEAE fractions are pooled, frozen and stored at −80° C. The protein concentration is determined by OD280 (A280=1.03 mg/mL).
# This non-radiometric assay determines the enzymatic activity of purified recombinant HCMV polymerase (UL54) using a Digoxigenin-labeled oligonucleotide priming a heteropolymeric template. The enzymatic activity is determined by incorporating Biotin-dUTP in the nascent complementary strand. The signal is generated by Fluorescence Resonance Energy Transfer from the donor (Anti-Digoxigenin-Europium Chelate binding with the primer) to the acceptor Streptavidin-AlloPhycoCyanin (SA-APC) binding to the biotin of the labeled nucleotides incorporated in proximity.
# Serial dilutions of the DMSO stock compound solution are performed using DMSO in columns 2-11 and 14-23. DMSO alone is present in columns 1, 12, 13 and 24. The plate is centrifuged at 200×g for 30 sec. 35 μL of compound dilution buffer (10 mM Hepes pH 7.5, 25 mM KCl, 5 mM MgCl2, 1 mM TCEP) is added to 5 μL of the diluted compound in DMSO to obtain 12.5% DMSO. 4 μL per well of the 12.5% DMSO serial dilution compound solution is added to the assay plate.
# The assay conditions are the following: 10 mM HEPES pH 7.5, 25 mM KCl, 7.5 mM NaCl, 5 mM MgCl2, 0.2 mg BSA/mL, 1 mM TCEP, 1.5% glycerol, 5% DMSO, 235 nM dATP, 350 nM dCTP, 350 nM dGTP, 235 nM dTTP, 12 nM biotin-16-dUTP, 23.5 nM Dig-primer/template, 2 nM GST-UL54. The assay volume is 10 μL. […]
# T1 sequence (P08546 whole entry): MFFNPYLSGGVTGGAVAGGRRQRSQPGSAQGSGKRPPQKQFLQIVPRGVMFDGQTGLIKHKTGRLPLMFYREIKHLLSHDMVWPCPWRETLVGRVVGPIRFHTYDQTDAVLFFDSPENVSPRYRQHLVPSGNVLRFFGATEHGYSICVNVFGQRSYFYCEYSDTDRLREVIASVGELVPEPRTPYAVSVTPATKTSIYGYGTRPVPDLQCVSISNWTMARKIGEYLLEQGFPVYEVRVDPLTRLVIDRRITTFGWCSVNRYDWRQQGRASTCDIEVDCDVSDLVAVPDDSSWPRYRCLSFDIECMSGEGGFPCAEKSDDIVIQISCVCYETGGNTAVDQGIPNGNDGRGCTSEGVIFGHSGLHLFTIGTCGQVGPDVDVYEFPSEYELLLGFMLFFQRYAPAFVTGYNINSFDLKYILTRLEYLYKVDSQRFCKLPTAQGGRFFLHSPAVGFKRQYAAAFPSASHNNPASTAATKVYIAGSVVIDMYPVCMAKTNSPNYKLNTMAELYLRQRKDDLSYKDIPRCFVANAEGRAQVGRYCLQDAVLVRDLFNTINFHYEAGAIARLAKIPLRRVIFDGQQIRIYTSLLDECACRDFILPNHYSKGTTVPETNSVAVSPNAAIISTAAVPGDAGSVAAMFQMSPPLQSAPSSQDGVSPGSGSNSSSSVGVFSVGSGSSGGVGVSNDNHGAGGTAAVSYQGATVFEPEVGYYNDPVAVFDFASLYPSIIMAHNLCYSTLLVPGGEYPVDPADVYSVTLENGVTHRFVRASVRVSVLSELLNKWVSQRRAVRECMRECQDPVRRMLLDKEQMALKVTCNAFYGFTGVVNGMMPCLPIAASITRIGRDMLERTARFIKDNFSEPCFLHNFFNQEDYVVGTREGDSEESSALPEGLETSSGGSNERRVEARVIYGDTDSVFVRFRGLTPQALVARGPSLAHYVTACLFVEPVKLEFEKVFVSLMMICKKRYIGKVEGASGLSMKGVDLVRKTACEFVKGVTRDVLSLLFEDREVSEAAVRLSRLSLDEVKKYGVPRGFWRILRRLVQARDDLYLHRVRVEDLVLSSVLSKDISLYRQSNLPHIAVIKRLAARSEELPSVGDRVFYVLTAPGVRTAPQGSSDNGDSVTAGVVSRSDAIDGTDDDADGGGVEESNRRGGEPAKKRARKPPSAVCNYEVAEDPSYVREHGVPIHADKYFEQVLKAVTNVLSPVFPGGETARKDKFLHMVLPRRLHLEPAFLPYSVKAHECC
row,Structure (SMILES),IC50
1,Cc1cc(Cl)ccc1CNC(=O)c1cc2c3c(cnc2n(CC(=O)N2CC(C)(F)C2)c1=O)nc(C)n3C [Compound 5038],140 nM

# Same assay, conditions: 2 nM GST-UL54, 37° C. for 30 min, 5% DMSO; read-out: Example 34 IC50
row,IC50,Structure (SMILES)
1,38 nM,Cc1nc2cnc3c(cc(C(=O)NCc4ccc(Cl)cc4)c(=O)n3CC(=O)N3CC(C)(F)C3)c2n1C [Compound 1002]
2,26 nM,CCn1cnc2cnc3c(cc(C(=O)NCc4ccc(Cl)cc4)c(=O)n3CC(=O)N3CC(C)(F)C3)c21 [Compound 1004]
3,48 nM,Cc1nc2cnc3c(cc(C(=O)NCc4ccc(Cl)cc4)c(=O)n3CC(=O)N3CC(F)(CF)C3)c2n1C [Compound 1007]
4,74 nM,Cn1cc(-c2nc3cnc4c(cc(C(=O)NCc5ccc(Cl)cc5)c(=O)n4CC(=O)N4CC(C)(F)C4)c3n2C)cn1 [Compound 1016]
5,29 nM,CC1(F)CN(C(=O)Cn2c(=O)c(C(=O)NCc3ccc(Cl)cc3)cc3c4c(cnc32)ncn4CCO)C1 [Compound 1024]
6,58 nM,COCc1nc2cnc3c(cc(C(=O)NCc4ccc(Cl)cc4)c(=O)n3CC(=O)N3CC(C)(F)C3)c2n1C [Compound 1031]
7,78 nM,Cn1c(N2CCCC2=O)nc2cnc3c(cc(C(=O)NCc4ccc(Cl)cc4)c(=O)n3CC(=O)N3CC(C)(F)C3)c21 [Compound 1038]
8,110 nM,Cn1c(N2CCOCC2)nc2cnc3c(cc(C(=O)NCc4ccc(Cl)cc4)c(=O)n3CC(=O)N3CC(C)(F)C3)c21 [Compound 1056]
9,60 nM,Cn1c(-n2ccnc2)nc2cnc3c(cc(C(=O)NCc4ccc(Cl)cc4)c(=O)n3CC(=O)N3CC(C)(F)C3)c21 [Compound 1061]
10,35 nM,Cc1nc2cnc3c(cc(C(=O)NCc4ccc(Cl)cc4)c(=O)n3CC(=O)N3CC(F)(CO)C3)c2n1C [Compound 1065]
11,61 nM,CN(C)Cc1nc2cnc3c(cc(C(=O)NCc4ccc(Cl)cc4)c(=O)n3CC(=O)N3CC(C)(C)C3)c2n1C [Compound 1070]
12,260 nM,Cc1nc2cnc3c(cc(C(=O)NCc4ccc(Cl)cc4)c(=O)n3CC(=O)N3CC4(C3)NCC4(F)F)c2n1C [Compound 1072]
13,42 nM,Cc1nc2cnc3c(cc(C(=O)NCc4ccc(Cl)cc4)c(=O)n3CC(=O)N(C)CC(C)(C)CO)c2n1C [Compound 1073]
14,75 nM,COc1nc2cnc3c(cc(C(=O)NCc4ccc(Cl)cc4)c(=O)n3CC(=O)N3CC(C)(C#N)C3)c2n1C [Compound 1074]
15,210 nM,CN(C)c1nc2c3cc(C(=O)NCc4ccc(Cl)cc4)c(=O)n(CC(=O)N4CC(C)(F)C4)c3ncc2n1C [Compound 2017]
16,140 nM,Cc1nc2cnc3c(cc(C(=O)NCc4ccc(C#N)cc4)c(=O)n3CC(=O)N3CC(C)(F)C3)c2n1C [Compound 3001]
17,93 nM,Cc1nc2c3cc(C(=O)NCc4ccc(C#N)cc4)c(=O)n(CC(=O)N4CC(C)C4)c3ncc2n1C [Compound 4003]
18,69 nM,CC1(F)CN(C(=O)Cn2c(=O)c(C(=O)NCc3ccc(Cl)cc3)cc3c4c(cnc32)nc2n4CCOC2)C1 [Compound 5002]
19,77 nM,CC1(F)CN(C(=O)Cn2c(=O)c(C(=O)NCc3ccc(Cl)cc3)cc3c4nc5n(c4cnc32)CCC5)C1 [Compound 5004]
20,89 nM,Cn1c(=O)n(C)c2c3cc(C(=O)NCc4ccc(Cl)cc4)c(=O)n(CC(=O)N4CC(C)(F)C4)c3ncc21 [Compound 5006]
21,65 nM,Cc1cn(C)c2c1cnc1c2cc(C(=O)NCc2ccc(Cl)cc2)c(=O)n1CC(=O)N1CC(C)C1 [Compound 5007]
22,160 nM,CC1(C)CN(C(=O)Cn2c(=O)c(C(=O)NCc3ccc(Cl)cc3)cc3c4c(cnc32)-c2ccccc2CO4)C1 [Compound 5012]
23,200 nM,Cn1cc(N2CCOc3c2cnc2c3cc(C(=O)NCc3ccc(Cl)cc3)c(=O)n2CC(=O)N2CC(C)(F)C2)cn1 [Compound 5015]
24,330 nM,CC1(C)CN(C(=O)Cn2c(=O)c(C(=O)NCc3ccc(Cl)cc3)cc3c4c(cnc32)NCCN4)C1 [Compound 5021]
25,460 nM,CC1(C)CN(C(=O)Cn2c(=O)c(C(=O)NCc3ccc(Cl)cc3)cc3c4c(cnc32)NC(C)(C)CO4)C1 [Compound 5022]
26,240 nM,COc1nc2c(cc(C(=O)NCc3ccc(Cl)cc3)c(=O)n2CC(=O)N2CC(C)(F)C2)c2c1nc(C)n2C [Compound 5035]
27,440 nM,Cc1nc2cnc3c(cc(C(=O)NCc4ccc(Cl)cc4)c(=O)n3CC(=O)N3CC(C)(F)C3)c2nc1C [Compound 5037]
28,190 nM,Cc1nc2cnc3c(cc(C(=O)NCc4ccc(Cl)c(O)c4)c(=O)n3CC(=O)N3CC(C)(F)C3)c2n1C [Compound 5046]
29,170 nM,COc1cc(CNC(=O)c2cc3c4c(cnc3n(CC(=O)N3CC(C)(F)C3)c2=O)nc(C)n4C)ccc1Cl [Compound 5048]
